According to patent US11229590B2, “Sunscreen formulation” (priority 2018, dated 2022):

Columns and labels:
[1] = 4-Methoxy-benzylamine formulation mice skin penetration test (plasma level by HPLC); type: in vivo; settings: topical on mouse back
Procedure: Mice Test Procedures: • 1. […] The 12 mice were randomly divided into two groups. […] Add methanol and acetonitrile 200 μL, respectively. […] Precisely transfer the supernatant solution to another test tube. At 40° C. blow N2 through to dryness. […] Supernatant solution was used directly for HPLC analysis. • 4.

[2] = formulation containing 10%, daily 2 mg/cm^2 for a week, cited from earlier work
[3] = Urine samples collected 2007-2009 from Californian females; type: in vivo, human; settings: from 22.9 ng/mL to 200 ng/mL
Procedure: Since the first day of sunscreen usage in 1930s, the exposure to sunscreen agents has begun. Initially, the scope and frequency of the sunscreen usage among the human population were very limited. Therefore, the levels of UV filters found in human samples were usually low. However, for the last 20 years, the situation changed dramatically. In one epidemiological study conducted in 2003-2004, 2517 urine samples from United States general population were analyzed for the presence of oxybenzone (benzophenone-3, bp-3), as part of the 2003-2004 National Health and Nutrition Examination Survey [A. M. Calafat, L. Y. Wong, X. YE, J. A. Reidy, L. L. Needham, Concentrations of the sunscreen agent benzophenone-3 in residents of the United States: National Health and nutrition Examination Survey 2003-2004, Environ. Health Perspect, 116 (2008) 893-897]. Oxybenzone was detected in 97% of the all samples with mean concentration of 22.9 ng/ml and 95th percentile concentration of 1040 ng/ml. As the data indicates, the sunscreen agent occurrences are wide spread. […] 543 (2016) 28-36]. […] About nine times higher than previously reported levels of oxybenzone (up to 13000 ng/ml, average around 200 ng/ml) were found in urine samples collected in 2007-2009 from Californian females, which is probably a result of specific demographics [C. […]

[4] = couples, samples 2005-2009; cited from earlier work
[5] = maternal urine, gestational weeks 6-30; cited from earlier work
[6] = 2517 urine samples, 2003-2004; cited from earlier work
[7] = Californian females, 2007-2009; cited from earlier work

| SMILES | skin penetration in mice [1] | maximum plasma concentration, females [2] [ng/mL] | mean urine concentration, females [2] [ng/mL] | maximum plasma concentration, males [2] [ng/mL] | mean urine concentration, males [2] [ng/mL] | increase of average concentration in urine sample compared to 2003-2004 study [3] | rank among urinary benzophenone-type UV filters in the study population [4] | correlation of maternal urinary levels with overall weight and head circumference of the baby [5] | 95th percentile concentration in urine [6] [ng/mL] | mean concentration in urine [6] [ng/mL] | share of urine samples in which detected [6] [%] | average level in urine samples [7] | highest level in urine samples [7] |
| --- | --- | --- | --- | --- | --- | --- | --- | --- | --- | --- | --- | --- | --- |
| COc1ccc(CN)cc1 [4-methoxy-benzylamine] | could not penetrate the skin of mice | – | – | – | – | – | – | – | – | – | – | – | – |
| Cc1ccc(C=C2C(=O)C3(C)CCC2C3(C)C)cc1 (stereo not drawn) [4-methylbenzylidene camphor] | – | 20 | 5 | 20 | 7 | – | – | – | – | – | – | – | – |
| CCCCC(CC)COC(=O)C=Cc1ccc(OC)cc1 (stereo not drawn) [octyl methoxycinnamate] | – | 10 | 5 | 2 | 8 | – | – | – | – | – | – | – | – |
| COc1ccc(C(=O)c2ccccc2)c(O)c1 [oxybenzone, 2-hydroxy-4-methoxybenzophenone] | – | 200 | 60 | 300 | 140 | more than 9 folds | most predominant | positively correlated | 1040 | 22.9 | 97 | around 200 ng/ml | up to 13000 ng/ml |
